Drawing on patent US20240158392A1 (Janssen Biotech, Inc., priority 2021, published 2024), this text covers IC50 for 26 molecules.

Assay [1] concerns the target T1, SIK2 (Homo sapiens, UniProt Q9H0K1). Nature of the assay: SIK2 Enzymatic Assay High Version 2 (High ATP). The class given is biochemical. The gist of the method: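 At room temperature, enzyme (6 nM, 2× final) was preincubated with compound for 30 min, then 6 mM ATP and 400 μM HDAC5tide (both 2× final) were added for 2 h. ADP formed was measured by ADP-Glo Max (2 h reagent, 1 h detection) using luminescence.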

Assay [2] addresses T1, SIK2. The assay is described as follows: SIK2 Enzymatic Assay Version 1 (ADP Glo). Format: biochemical. The settings on record: enzyme 0.6 nM, 160 μM ATP and 140 μM HDAC5tide (each 2× final concentration); 30 minutes pre-incubation, 4 hours; ADPGlo luminescence; read-out: SIK2 ADP Glo IC50 (μM) (Test Example 1). The gist of the method:
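Room-temperature ADP-Glo luminescence assay; SIK2 added at 0.6 nM (2× final) and preincubated with compound for 30 min. Reaction stopped with ADP-Glo Reagent for 40 min, then detection reagent for at least 30 min; no-peptide (ATP-only) wells served as negative control.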

Molecules are shown by their SMILES. A value given as a limit tells only on which side of the number the result lay.

Usually IC50 stands for the concentration at which inhibition is half-maximal.

T1 sequence (Q9H0K1 whole entry, species assumed): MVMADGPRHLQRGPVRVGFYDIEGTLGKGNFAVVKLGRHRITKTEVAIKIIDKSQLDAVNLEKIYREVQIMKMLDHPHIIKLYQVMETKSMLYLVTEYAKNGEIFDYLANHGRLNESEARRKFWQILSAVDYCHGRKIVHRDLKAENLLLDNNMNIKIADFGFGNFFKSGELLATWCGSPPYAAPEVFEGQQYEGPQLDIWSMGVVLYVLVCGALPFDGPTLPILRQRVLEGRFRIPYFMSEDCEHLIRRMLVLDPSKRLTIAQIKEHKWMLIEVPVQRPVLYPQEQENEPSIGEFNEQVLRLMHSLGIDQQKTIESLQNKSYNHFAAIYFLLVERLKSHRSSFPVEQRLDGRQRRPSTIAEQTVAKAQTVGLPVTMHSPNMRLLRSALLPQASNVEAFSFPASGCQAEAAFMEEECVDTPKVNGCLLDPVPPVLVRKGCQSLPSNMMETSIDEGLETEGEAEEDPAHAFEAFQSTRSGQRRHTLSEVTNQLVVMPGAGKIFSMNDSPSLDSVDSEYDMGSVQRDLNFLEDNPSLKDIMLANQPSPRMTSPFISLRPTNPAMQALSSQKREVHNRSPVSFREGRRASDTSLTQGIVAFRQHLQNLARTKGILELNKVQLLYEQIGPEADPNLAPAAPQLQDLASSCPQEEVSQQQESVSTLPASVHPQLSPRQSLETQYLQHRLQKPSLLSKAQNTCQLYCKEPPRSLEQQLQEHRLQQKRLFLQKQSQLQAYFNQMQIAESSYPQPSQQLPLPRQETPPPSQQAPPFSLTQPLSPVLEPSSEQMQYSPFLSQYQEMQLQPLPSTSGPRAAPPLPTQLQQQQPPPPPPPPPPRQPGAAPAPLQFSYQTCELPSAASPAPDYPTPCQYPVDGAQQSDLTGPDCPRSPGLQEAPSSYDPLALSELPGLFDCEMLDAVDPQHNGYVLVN

As to `CNC1(COc2cnc(C)cc2-c2ccn3nc(NC(=O)C4CC4)cc3c2)CCC1` [Example 156, N-[5-[2-methyl-5-[[1-(methylamino)cyclobutyl]methoxy]-4-pyridyl]pyrazolo[1,5-a]pyridin-2-yl]cyclopropanecarboxamide], the values for the IC50 on SIK2 [1] and at SIK2 [2] were 78.8 nM and 0.00369 µM, respectively.
For `Cc1cc(-c2ccn3nc(NC(=O)C4CC4)cc3c2)c(O[C@H]2CC[C@H](O)CC2)cn1` [Example 158, trans-N-[5-[5-(4-hydroxycyclohexoxy)-2-methyl-4-pyridyl]pyrazolo[1,5-a]pyridin-2-yl]cyclopropanecarboxamide] the same measures were 18.3 nM and 0.00132 µM.
In the same order, the values of `Cc1cc(-c2ccn3nc(NC(=O)C4CC4)cc3c2)c(OC[C@H]2CNCCO2)cn1` [Example 166, N-[5-[2-methyl-5-[[(2R)-morpholin-2-yl]methoxy]-4-pyridyl]pyrazolo[1,5-a]pyridin-2-yl]cyclopropanecarboxamide] are 15.9 nM and 0.00101 µM.
For `Cc1cc(-c2ccn3nc(NC(=O)C4CC4)cc3c2)c(OC[C@@H]2CNC(C)(C)CO2)cn1` [Example 167, N-[5-[5-[[(2S)-5,5-dimethylmorpholin-2-yl]methoxy]-2-methyl-4-pyridyl]pyrazolo[1,5-a]pyridin-2-yl]cyclopropanecarboxamide] the same measures were 8.8 nM and 0.00059 µM.
As for `Cc1cc(-c2ccn3nc(NC(=O)C4CC4)cc3c2)c(OC[C@@H]2CN[C@H](C)CO2)cn1` [Example 168, N-[5-[2-methyl-5-[[(2S,5R)-5-methylmorpholin-2-yl]methoxy]-4-pyridyl]pyrazolo[1,5-a]pyridin-2-yl]cyclopropanecarboxamide], the IC50 at SIK2 [1] turned out to be 4.73 nM; at SIK2 [2] it was 0.000382 µM.
In the same order, the values of `Cc1cc(-c2ccn3nc(NC(=O)C4CC4)cc3c2)c(OCC2(F)CN(C)C2)cn1` [Example 169, N-[5-[5-[(3-fluoro-1-methyl-azetidin-3-yl)methoxy]-2-methyl-4-pyridyl]pyrazolo[1,5-a]pyridin-2-yl]cyclopropanecarboxamide] are 50.7 nM and 0.00307 µM.
In the same order, the values of `Cc1cc(-c2ccn3nc(NC(=O)C4CC4)cc3c2)c(O[C@H]2C[C@H](N)C2)cn1` [Example 170, trans-N-[5-[5-(3-aminocyclobutoxy)-2-methyl-4-pyridyl]pyrazolo[1,5-a]pyridin-2-yl]cyclopropanecarboxamide] are 12.9 nM and 0.000853 µM.
In the same order, the values of `Cc1cc(-c2ccn3nc(NC(=O)C4CC4)cc3c2)c(OC[C@H]2C[C@@H](N)C2)cn1` [Example 171, cis-N-[5-[5-[(3-aminocyclobutyl)methoxy]-2-methyl-4-pyridyl]pyrazolo[1,5-a]pyridin-2-yl]cyclopropanecarboxamide] are 12.3 nM and 0.000617 µM.
Take `N#Cc1cc(-c2ccn3nc(NC(=O)C4CC4)cc3c2)c(OC[C@H]2C[C@@H](N)C2)cn1` [Example 175, N-(5-(5-(((1s,3s)-3-aminocyclobutyl)methoxy)-2-cyanopyridin-4-yl)pyrazolo[1,5-a]pyridin-2-yl)cyclopropanecarboxamide]: the IC50 against SIK2 [1] was found to be 8.45 nM; at SIK2 [2] it was 0.000443 µM.
For `N#Cc1cc(-c2ccn3nc(NC(=O)C4CC4)cc3c2)c(OC[C@H]2C[C@@H](Nc3ccccn3)C2)cn1` [Example 176, cis-N-[5-[2-cyano-5-[[3-(2-pyridylamino)cyclobutyl]methoxy]-4-pyridyl]pyrazolo[1,5-a]pyridin-2-yl]cyclopropanecarboxamide] the same measures were 55.5 nM and 0.00196 µM.
With `Cn1ccc(N[C@H]2C[C@@H](COc3cnc(C#N)cc3-c3ccn4nc(NC(=O)C5CC5)cc4c3)C2)n1` [Example 177, cis-N-[5-[2-cyano-5-[[3-[(1-methylpyrazol-3-yl)amino]cyclobutyl]methoxy]-4-pyridyl]pyrazolo[1,5-a]pyridin-2-yl]cyclopropanecarboxamide], the IC50 against SIK2 [1] worked out at 29.3 nM; at SIK2 [2], 0.00137 µM.
In the same order, the values of `Cc1cc(-c2ccn3nc(Nc4ccn(C)n4)cc3c2)c(O[C@H]2CC[C@H](O)CC2)cn1` [Example 181, trans-4-[[6-methyl-4-[2-[(1-methylpyrazol-3-yl)amino]pyrazolo[1,5-a]pyridin-5-yl]-3-pyridyl]oxy]cyclohexanol] are 32 nM and 0.00236 µM.
For `Cc1cc(-c2ccn3nc(Nc4ccccn4)cc3c2)c(O[C@H]2CC[C@H](O)CC2)cn1` [Example 182, trans-4-[[6-methyl-4-[2-(2-pyridylamino)pyrazolo[1,5-a]pyridin-5-yl]-3-pyridyl]oxy]cyclohexanol] the same measures were 33.8 nM and 0.00176 µM.
In the same order, the values of `Cc1cc(-c2ccn3nc(Nc4ccn(C)n4)cc3c2)c(O[C@H]2CC[C@@H](O)CC2)cn1` [Example 184, cis-4-[[6-methyl-4-[2-[(1-methylpyrazol-3-yl)amino]pyrazolo[1,5-a]pyridin-5-yl]-3-pyridyl]oxy]cyclohexanol] are 14 nM and 0.00175 µM.
Regarding `CC#Cc1cc(-c2ccn3nc(NC(=O)C4CC4)cc3c2)c(O[C@H]2CC[C@H](O)CC2)cn1` [Example 185, trans-N-[5-[5-(4-hydroxycyclohexoxy)-2-prop-1-ynyl-4-pyridyl]pyrazolo[1,5-a]pyridin-2-yl]cyclopropanecarboxamide], the IC50 against SIK2 [1] is under 0.838 nM; at SIK2 [2], 0.000366 µM.
Consider `Cc1cc(-c2ccn3nc(Nc4cccnc4)cc3c2)c(O[C@H]2CC[C@H](O)CC2)cn1` [Example 290, (1r,4r)-4-((6-methyl-4-(2-(pyridin-3-ylamino)pyrazolo[1,5-a]pyridin-5-yl)pyridin-3-yl)oxy)cyclohexan-1-ol], for which the IC50 on SIK2 [1] was found to be 83.1 nM; at SIK2 [2], 0.00439 µM.
Consider `Cc1ccnc(Nc2cc3cc(-c4cc(C)ncc4OC[C@@H]4CNCCO4)ccn3n2)c1` [Example 427, 5-[2-methyl-5-[[(2S)-morpholin-2-yl]methoxy]-4-pyridyl]-N-(4-methyl-2-pyridyl)pyrazolo[1,5-a]pyridin-2-amine], for which the figures for the IC50 at SIK2 [1] and on SIK2 [2] were 11.5 nM and 0.0012 µM, respectively.
Consider `Cc1cc(-c2ccn3nc(Nc4ccccn4)cc3c2)c(OC[C@H]2CNCCO2)cn1` [Example 428, 5-[2-methyl-5-[[(2R)-morpholin-2-yl]methoxy]-4-pyridyl]-N-(2-pyridyl)pyrazolo[1,5-a]pyridin-2-amine], for which the IC50 was determined as 20.8 nM against SIK2 [1] and 0.00201 µM at SIK2 [2].
For `Cc1cc(-c2ccn3nc(Nc4cc(C)nc(C)n4)cc3c2)c(OC[C@@H]2CNCCO2)cn1` [Example 432, N-(2,6-dimethylpyrimidin-4-yl)-5-[2-methyl-5-[[(2S)-morpholin-2-yl]methoxy]-4-pyridyl]pyrazolo[1,5-a]pyridin-2-amine] the same measures were 1.71 nM and 0.000345 µM.
For `CC#Cc1cc(-c2ccn3nc(NC(=O)C4CC4)cc3c2)c(OC[C@@H]2CCN(C)C2)cn1` [Example 441, N-[5-[5-[[(3R)-1-methylpyrrolidin-3-yl]methoxy]-2-prop-1-ynyl-4-pyridyl]pyrazolo[1,5-a]pyridin-2-yl]cyclopropanecarboxamide] the same measures were 12.1 nM and 0.00106 µM.
For the molecule `CC#Cc1cc(-c2ccn3nc(NC(=O)C4CC4)cc3c2)c(OC2CN(C)C2)cn1` [Example 442, N-[5-[5-(1-methylazetidin-3-yl)oxy-2-prop-1-ynyl-4-pyridyl]pyrazolo[1,5-a]pyridin-2-yl]cyclopropanecarboxamide], the IC50 stood at 3.75 nM against SIK2 [1] and 0.000323 µM at SIK2 [2].
As for `Cc1cc(-c2ccn3nc(NC(=O)C4CC4)cc3c2)c(O[C@H]2C[C@](C)(N)C2)cn1` [Example 444, N-(5-(5-((1r,3r)-3-amino-3-methylcyclobutoxy)-2-methylpyridin-4-yl)pyrazolo[1,5-a]pyridin-2-yl)cyclopropanecarboxamide], the results for the IC50 against SIK2 [1] and at SIK2 [2] were 1.63 nM and 0.000605 µM, respectively.
In the same order, the values of `CC(C)(C#N)COc1cnc(OC(F)F)cc1-c1ccn2nc(Nc3ccn4ncnc4c3)cc2c1` [Example 475, 3-[[6-(difluoromethoxy)-4-[2-([1,2,4]triazolo[1,5-a]pyridin-7-ylamino)pyrazolo[1,5-a]pyridin-5-yl]-3-pyridyl]oxy]-2,2-dimethyl-propanenitrile] are 27.1 nM and 0.00205 µM.
In the same order, the values of `N#Cc1ccc(OC[C@@H]2CCNC2)c(-c2ccn3nc(NC(=O)C4CC4)cc3c2)c1` [Example 476, N-[5-[5-cyano-2-[[(3R)-pyrrolidin-3-yl]methoxy]phenyl]pyrazolo[1,5-a]pyridin-2-yl]cyclopropanecarboxamide] are 55.6 nM and 0.00386 µM.
For `Cc1cc(-c2ccn3nc(Nc4cc(C)nc(C)n4)cc3c2)c(O[C@H]2CC[C@H](O)CC2)nn1` [Example 488, 4-[4-[2-[(2,6-dimethylpyrimidin-4-yl)amino]pyrazolo[1,5-a]pyridin-5-yl]-6-methyl-pyridazin-3-yl]oxycyclohexanol] the same measures were 116 nM and 0.00294 µM.
With `CN1CC[C@@H](COc2cnccc2-c2ccn3nc(NC(=O)C4CC4)cc3c2)C1` [Example 489, N-[5-[3-[[(3R)-1-methylpyrrolidin-3-yl]methoxy]-4-pyridyl]pyrazolo[1,5-a]pyridin-2-yl]cyclopropanecarboxamide], the results for the IC50 against SIK2 [1] and on SIK2 [2] were 10.3 nM and 0.000791 µM, respectively.
